Measurements as given in ChEMBL document CHEMBL1208703, “Structure-activity relationships and in vivo activity of (1H-pyrazol-4-yl)acetamide antagonists of the P2X(7) receptor” (Bioorg Med Chem Lett, 2010).
Activity calls are given as the source filed them. No cut-off for these calls is given here.

How the values were obtained:
P2X purinoceptor 7 [1] = target: T1, P2X purinoceptor 7 (Homo sapiens, UniProt Q99572); assay: Antagonist activity at human P2X7 receptor ethidium bromide release assay; assay type: functional
T1 sequence (Q99572 whole entry): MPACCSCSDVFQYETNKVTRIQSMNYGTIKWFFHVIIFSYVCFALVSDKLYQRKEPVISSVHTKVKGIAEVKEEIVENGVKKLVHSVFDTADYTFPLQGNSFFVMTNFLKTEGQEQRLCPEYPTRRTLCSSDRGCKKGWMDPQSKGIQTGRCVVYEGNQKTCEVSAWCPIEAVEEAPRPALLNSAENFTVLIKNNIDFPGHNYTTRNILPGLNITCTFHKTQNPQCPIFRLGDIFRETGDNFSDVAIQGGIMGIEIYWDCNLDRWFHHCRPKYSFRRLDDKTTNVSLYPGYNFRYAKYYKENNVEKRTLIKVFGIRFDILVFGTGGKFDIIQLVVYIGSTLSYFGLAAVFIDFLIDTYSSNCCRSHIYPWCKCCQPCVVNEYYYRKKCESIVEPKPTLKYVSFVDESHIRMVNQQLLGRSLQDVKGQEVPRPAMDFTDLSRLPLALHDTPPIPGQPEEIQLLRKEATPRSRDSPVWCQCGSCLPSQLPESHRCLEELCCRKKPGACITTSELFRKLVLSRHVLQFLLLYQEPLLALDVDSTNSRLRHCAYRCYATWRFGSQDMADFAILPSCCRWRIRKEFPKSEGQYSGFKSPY

P2X purinoceptor 7 [2] = target: T2, P2X purinoceptor 7 (Rattus norvegicus, UniProt Q64663); assay: Antagonist activity at rat P2X7 receptor ethidium bromide release assay; assay type: functional
T2 sequence (Q64663 whole entry): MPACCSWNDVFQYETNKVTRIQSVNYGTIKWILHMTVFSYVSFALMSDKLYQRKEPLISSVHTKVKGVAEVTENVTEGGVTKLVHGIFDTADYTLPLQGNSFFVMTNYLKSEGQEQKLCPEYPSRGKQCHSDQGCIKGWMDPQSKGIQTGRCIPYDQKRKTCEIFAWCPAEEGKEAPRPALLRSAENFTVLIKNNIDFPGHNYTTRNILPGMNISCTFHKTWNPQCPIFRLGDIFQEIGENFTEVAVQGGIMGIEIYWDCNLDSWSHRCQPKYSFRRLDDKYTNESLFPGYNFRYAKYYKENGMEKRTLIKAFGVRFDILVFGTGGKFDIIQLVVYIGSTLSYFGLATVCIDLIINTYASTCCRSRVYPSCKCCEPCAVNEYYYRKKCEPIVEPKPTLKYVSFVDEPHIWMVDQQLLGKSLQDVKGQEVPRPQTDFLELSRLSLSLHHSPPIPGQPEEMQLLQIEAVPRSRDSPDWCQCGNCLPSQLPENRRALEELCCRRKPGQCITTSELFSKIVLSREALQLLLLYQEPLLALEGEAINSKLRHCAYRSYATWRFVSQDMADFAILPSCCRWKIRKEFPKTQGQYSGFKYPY

[3] = Blood clearance in rat at 1 mg/kg, iv; assay type: ADME, organism-based; parameters: dose 1 mg/kg, route intravenous; settings: whole blood
[4] = Volume of distribution at steady state in rat at 1 mg/kg, iv; assay type: ADME, organism-based; parameters: dose 1 mg/kg, route intravenous; settings: in vivo, read-out: Vdss
[5] = Excretion half life in rat at 1 mg/kg, iv; assay type: ADME, organism-based; parameters: dose 1 mg/kg, route intravenous; settings: in vivo, read-out: beta t1/2 (converted)
[6] = Oral bioavailability in rat at 3 mg/kg; assay type: ADME, organism-based; settings: in vivo, read-out: Activity
Rattus norvegicus [7] = assay: Antihyperalgesic activity against complete Freund's adjuvant-induced hypersensitivity in po dosed rat inflammatory pain model after 1.5 hrs; assay type: functional
Rattus norvegicus [8] = assay: Antihyperalgesic activity against complete Freund's adjuvant-induced hypersensitivity in rat inflammatory pain model at 10 mg/kg, po after 1.5 hrs; assay type: functional, organism-based; parameters: dose 10 mg/kg
Brain = assay: Drug level in rat brain at 10 mg/kg, po; assay type: ADME, organism-based; parameters: dose 10 mg/kg, route oral; settings: in vivo, read-out: Drug uptake
Blood = assay: Drug level in rat blood at 10 mg/kg, po; assay type: ADME, organism-based; parameters: dose 10 mg/kg, route oral; settings: in vivo, read-out: Drug uptake
Rattus norvegicus [9] = assay: Reversal of complete Freund's adjuvant-induced hypersensitivity in rat chronic knee joint pain model at 5-50 mg/kg, po administered 13 days after complete Freund's adjuvant challenge bid for 4 days measured on day 14; assay type: functional, organism-based
Rattus norvegicus [10] = assay: Reversal of complete Freund's adjuvant-induced hypersensitivity in rat chronic knee joint pain model at 5-50 mg/kg, po administered 13 days after complete Freund's adjuvant challenge bid for 4 days measured on day 15; assay type: functional, organism-based

Structure (SMILES)	IC50 (P2X purinoceptor 7 [1]) [nM]	other results
Cc1n[nH]c(C)c1CC(=O)NCc1cccc(C(F)(F)F)c1Cl	2.51	
Cc1noc(C)c1CC(=O)NCc1ccc(Cl)cc1Cl	15.8	
Cc1n[nH]c(C)c1CC(=O)NCc1ccc(Cl)cc1	631	
Cc1cnn(C)c1CC(=O)NCc1ccc(Cl)cc1Cl	10	
Cc1n[nH]c(C)c1CC(=O)NCc1cccc(Cl)c1	158	
Cc1n[nH]c(C)c1CC(=O)NCc1ccc(Cl)c(C(F)(F)F)c1	63.1	
Cc1noc(C)c1CC(=O)NCc1cccc(C(F)(F)F)c1Cl	2.51	
Cc1n[nH]c(C)c1CC(=O)NCc1ccccc1Cl	251	
Cc1cnn(C)c1CC(=O)NCc1cccc(C(F)(F)F)c1Cl	3.16	
Cn1ncc(F)c1CC(=O)NCc1cccc(C(F)(F)F)c1Cl	10	
Cc1n[nH]c(C)c1CC(=O)NCc1ccc(F)cc1C(F)(F)F	39.8	

The next lines start with results.

IC50 (P2X purinoceptor 7 [1]) [nM]	Structure (SMILES)	other results
126	CC(C)c1n[nH]c(C(C)C)c1CCC(=O)NCc1ccc(F)cc1Cl	
63.1	Cc1noc(C)c1CCC(=O)NCc1ccc(F)cc1Cl	
398	Cc1cn[nH]c1CCC(=O)NCc1ccc(F)cc1Cl	
7.94	Cc1n[nH]c(C)c1CC(=O)NCc1ccc(Cl)cc1Cl	IC50 (P2X purinoceptor 7 [2]): 79.4 nM; clearance [3]: 9 mL/min/kg; Vd [4]: 1 L/kg; half-life [5]: 1.7 h; bioavailability [6]: 100%; ED50 (Rattus norvegicus [7]): 2.5 mg/kg; Activity (Rattus norvegicus [8]): Active; concentration (Brain): 4.9 µM; concentration (Blood): 20.9 µM; Activity (Rattus norvegicus [9]): Active; Activity (Rattus norvegicus [10]): Active
316	Cc1cc(CCC(=O)NCc2ccc(F)cc2Cl)n(C)n1	
158	Cc1cnn(C)c1CCC(=O)NCc1ccc(F)cc1Cl	
158	Cc1n[nH]c(C)c1CC(=O)NCc1ccc(F)cc1F	
12.6	Cc1[nH]nc(C(F)(F)F)c1CCC(=O)NCc1ccc(F)cc1Cl	
> 1000	Cc1[nH]nc(-c2ccccc2)c1CCC(=O)NCc1ccc(F)cc1Cl	
100	Cc1[nH]nc(CC(C)C)c1CCC(=O)NCc1ccc(F)cc1Cl	
158	Cc1[nH]nc(C(C)(C)C)c1CCC(=O)NCc1ccc(F)cc1Cl	
10	CCc1n[nH]c(CC)c1CCC(=O)NCc1ccc(F)cc1Cl	
